In US6509318B1, “TGF-B inhibitors and methods” (The Regents of the University of California, priority 2000, dated 2003):
Non-standard residues stand in square brackets, D forms with d. No end group written: not given here.

Columns and labels:
TGF β-1 = assay: Inhibition of TGF β-1 activity by CITAs: reversal of TGF β-1 inhibition of DNA synthesis in MV-1-Lu cells; type: cell-based; conditions: for DNA synthesis restored, relative to the level seen with TGF β-1: MV-1-Lu cells exposed to 5 nM TGF β-1, all concentrations of CITAs; for reversal of the inhibition of DNA synthesis caused by TGF β-1 / 3H-Thymidine Incorporation 10^3 d.p.m. ± S.D.: MV-1-Lu cells; for reversal of the inhibition of DNA synthesis caused by TGF β-1: TGF β-1 5 nM and 10 nM; for 3H-Thymidine Incorporation 10^3 d.p.m. ± S.D.: 24 h; for (+/−) % change over control when CITA is present: vs control (no additions)
Text: (§1) Inhibition of TGF β-1 Activity by CITAs: We have used a standardized in vitro assay for TGF β-1 as a test for the biological activity of CITAs. Our test is based on inhibiting the effect of TGF β-1 on a test cell proliferation system. In this assay, mink lung epithelium MV-1-Lu cells are exposed to TGF β-1. […] The decrease in DNA synthesis can be monitored by measuring the incorporation of labeled precursors in DNA. The incorporation of ^3H-thymidine in DNA in MV-1-Lu cells are used as a measure of cell proliferation. […] These concentrations of TGF β-1 were based on the amounts of TGF β-1 found in normal serum and in serum from patients with peritonitis, an inflammatory disease. The normal amount of TGF β-1 in human serum is approximately 2 nM (39 pG/ml). In patients with peritonitis, the amount increases to nearly 10 nM (169-216 pG/ml). The incorporation of ^3H-thymidine in the absence of TGF β-1 served as the control. To test the anti-TGF β-1 activity of CITAs, the cells were exposed to 1 nM, 10 nM, and 100 nM CITA-I, CITA-II, and CITA-III in the absence and in the presence of 5.0 nM and 10.0 nM TGF β-1.
(§2) Details of Experimental Procedures: 10^4 MV-1-Lu were plated in each well of a 12 well plate in 2.0 ml minimum essential medium containing non-essential amino acids (MEM) and 10% fetal bovine serum. After 24 hours, the medium was placed with serum free MEM and the cells were further cultured for two hours before the medium was placed with serum free MEM containing the test additives. After exposure to the test medium for 24 hours, the cells were pulse labeled for two hours with 0.5 μCi (methyl-^3H)-thymidine, (specific activity 60 Ci/mmol). After pulse labeling, the radioactive medium was removed, and the cells were washed 1× with 10% trichloracetic acid (TCA), 2× with 5% TCA, then 2× with phosphate buffered saline containing 50 μg/ml non-radioactive thymidine. The wash solutions were monitored to establish that no further unbound radioactive thymidine remained. The washed cell layers were dissolved in 1 ml 0.1 N NaOH containing 1% sodium dodecyl sulfate. The radioactivity in the solution was measured in a scintillation counter and expressed as disintegrations per minute (d.p.m.). Each test was carried out in quadruplicate, and the data presented as mean±standard deviation.

[1] = system: mink lung epithelium MV-1-Lu cells; assay: DNA synthesis (3H-thymidine incorporation) in MV-1-Lu cells, additions alone; type: cell-based; conditions: for 3H-Thymidine Incorporation 10^3 d.p.m. ± S.D.: 24 h; for (+/−) % change over control when CITA is present / (+/−) % change over control with TGF β-1: vs control (no additions); for decrease of DNA synthesis against the control: CITA alone, all concentrations examined (1, 10, 100 nM)
Text: as §1, §2

[2] = TGF β-1 5 nM + CITA 1 nM, relative to TGF β-1 5 nM alone
[3] = TGF β-1 5 nM + CITA 10 nM, relative to TGF β-1 5 nM alone
[4] = TGF β-1 5 nM + CITA 100 nM, relative to TGF β-1 5 nM alone
[5] = TGF β-1 10 nM + CITA 1 nM, relative to TGF β-1 10 nM alone
[6] = TGF β-1 10 nM + CITA 10 nM, relative to TGF β-1 10 nM alone
[7] = TGF β-1 10 nM + CITA 100 nM, relative to TGF β-1 10 nM alone
[8] = CITA 1 nM alone, no TGF β-1, MV-1-Lu cells
[9] = CITA 10 nM alone, no TGF β-1, MV-1-Lu cells
[10] = CITA 100 nM alone, no TGF β-1, MV-1-Lu cells

| Substance | DNA synthesis restored, relative to the level seen with TGF β-1 (TGF β-1) [×] | reversal of the inhibition of DNA synthesis caused by TGF β-1 (TGF β-1) | % Increase over TGF β-1. TGF β-1 + CITA/TGF β-1 × 100 (TGF β-1; [2]) [%] | 3H-Thymidine Incorporation 10^3 d.p.m. ± S.D. (TGF β-1; TGF β-1 5 nM + CITA 1 nM) | (+/−) % change over control when CITA is present (TGF β-1; TGF β-1 5 nM + CITA 1 nM) [%] | % Increase over TGF β-1. TGF β-1 + CITA/TGF β-1 × 100 (TGF β-1; [3]) [%] | 3H-Thymidine Incorporation 10^3 d.p.m. ± S.D. (TGF β-1; TGF β-1 5 nM + CITA 10 nM) | (+/−) % change over control when CITA is present (TGF β-1; TGF β-1 5 nM + CITA 10 nM) [%] | % Increase over TGF β-1. TGF β-1 + CITA/TGF β-1 × 100 (TGF β-1; [4]) [%] | 3H-Thymidine Incorporation 10^3 d.p.m. ± S.D. (TGF β-1; TGF β-1 5 nM + CITA 100 nM) | (+/−) % change over control when CITA is present (TGF β-1; TGF β-1 5 nM + CITA 100 nM) [%] | % Increase over TGF β-1. TGF β-1 + CITA/TGF β-1 × 100 (TGF β-1; [5]) [%] | 3H-Thymidine Incorporation 10^3 d.p.m. ± S.D. (TGF β-1; TGF β-1 10 nM + CITA 1 nM) | (+/−) % change over control when CITA is present (TGF β-1; TGF β-1 10 nM + CITA 1 nM) [%] | % Increase over TGF β-1. TGF β-1 + CITA/TGF β-1 × 100 (TGF β-1; [6]) [%] | 3H-Thymidine Incorporation 10^3 d.p.m. ± S.D. (TGF β-1; TGF β-1 10 nM + CITA 10 nM) | (+/−) % change over control when CITA is present (TGF β-1; TGF β-1 10 nM + CITA 10 nM) [%] | % Increase over TGF β-1. TGF β-1 + CITA/TGF β-1 × 100 (TGF β-1; [7]) [%] | 3H-Thymidine Incorporation 10^3 d.p.m. ± S.D. (TGF β-1; TGF β-1 10 nM + CITA 100 nM) | (+/−) % change over control when CITA is present (TGF β-1; TGF β-1 10 nM + CITA 100 nM) [%] | also measured |
| --- | --- | --- | --- | --- | --- | --- | --- | --- | --- | --- | --- | --- | --- | --- | --- | --- | --- | --- | --- | --- | --- |
| Leu-Ile-Ala-Pro-D-Glu-Ala (LIAP[dE]A) [CITA-I] | 2 | markedly reversed the inhibition of DNA synthesis | 250 | 41.05 ± 2.04 10^3 d.p.m. | −29 | 194 | 31.88 ± 2.32 10^3 d.p.m. | −45 | 181 | 29.70 ± 2.79 10^3 d.p.m. | −49 | 1113 | 21.26 ± 1.30 10^3 d.p.m. | −63 | 1373 | 26.23 ± 2.73 10^3 d.p.m. | −55 | 906 | 17.30 ± 2.19 10^3 d.p.m. | −70 | increase in DNA synthesis in the inhibited cells (TGF β-1; cells severely inhibited by 10 nM TGF β-1, all concentrations of CITA-I): over 10 fold; 3H-Thymidine Incorporation 10^3 d.p.m. ± S.D. [1, 8]: 46.46 ± 2.48 10^3 d.p.m.; (+/−) % change over control when CITA is present ([1]; CITA 1 nM alone, no TGF β-1): −19%; 3H-Thymidine Incorporation 10^3 d.p.m. ± S.D. [1, 9]: 44.93 ± 3.34 10^3 d.p.m.; (+/−) % change over control when CITA is present ([1]; CITA 10 nM alone, no TGF β-1): −21%; 3H-Thymidine Incorporation 10^3 d.p.m. ± S.D. [1, 10]: 45.10 ± 1.27 10^3 d.p.m.; (+/−) % change over control when CITA is present ([1]; CITA 100 nM alone, no TGF β-1): −22%; decrease of DNA synthesis against the control [1]: approximately 20% |
| Leu-Phe-Ala-Pro-D-Glu-Ala (LFAP[dE]A) [CITA-III] | 2 | markedly reversed the inhibition of DNA synthesis | 207 | 34.00 ± 0.86 10^3 d.p.m. | −41 | 207 | 34.03 ± 1.11 10^3 d.p.m. | −41 | 184 | 30.23 ± 1.69 10^3 d.p.m. | −48 | 1275 | 24.36 ± 1.14 10^3 d.p.m. | −58 | 997 | 19.04 ± 1.47 10^3 d.p.m. | −67 | 907 | 17.32 ± 0.27 10^3 d.p.m. | −70 | 3H-Thymidine Incorporation 10^3 d.p.m. ± S.D. [1, 8]: 44.67 ± 2.26 10^3 d.p.m.; (+/−) % change over control when CITA is present ([1]; CITA 1 nM alone, no TGF β-1): −23%; 3H-Thymidine Incorporation 10^3 d.p.m. ± S.D. [1, 9]: 47.19 ± 3.00 10^3 d.p.m.; (+/−) % change over control when CITA is present ([1]; CITA 10 nM alone, no TGF β-1): −18%; 3H-Thymidine Incorporation 10^3 d.p.m. ± S.D. [1, 10]: 44.36 ± 1.76 10^3 d.p.m.; (+/−) % change over control when CITA is present ([1]; CITA 100 nM alone, no TGF β-1): −23%; decrease of DNA synthesis against the control [1]: approximately 20% |
| Phe-Ile-Ala-Pro-D-Glu-Ala (FIAP[dE]A) [CITA-II] | 2 | markedly reversed the inhibition of DNA synthesis | 184 | 31.04 ± 1.07 10^3 d.p.m. | −29 | 169 | 27.75 ± 1.50 10^3 d.p.m. | −45 | 207 | 34.00 ± 0.86 10^3 d.p.m. | −49 | 970 | 18.51 ± 1.23 10^3 d.p.m. | −63 | 1084 | 20.70 ± 2.63 10^3 d.p.m. | −55 | 981 | 18.73 ± 1.67 10^3 d.p.m. | −70 | 3H-Thymidine Incorporation 10^3 d.p.m. ± S.D. [1, 8]: 45.10 ± 1.27 10^3 d.p.m.; (+/−) % change over control when CITA is present ([1]; CITA 1 nM alone, no TGF β-1): −22%; 3H-Thymidine Incorporation 10^3 d.p.m. ± S.D. [1, 9]: 42.03 ± 1.11 10^3 d.p.m.; (+/−) % change over control when CITA is present ([1]; CITA 10 nM alone, no TGF β-1): −27%; 3H-Thymidine Incorporation 10^3 d.p.m. ± S.D. [1, 10]: 43.08 ± 1.23 10^3 d.p.m.; (+/−) % change over control when CITA is present ([1]; CITA 100 nM alone, no TGF β-1): −25%; decrease of DNA synthesis against the control [1]: approximately 20% |
| TGF β-1: transforming growth factor β-1, growth factor protein used to inhibit DNA synthesis of MV-1-Lu cells |  |  |  |  |  |  |  |  |  |  |  |  |  |  |  |  |  |  |  |  | 3H-Thymidine Incorporation 10^3 d.p.m. ± S.D. ([1]; TGF β-1 5 nM alone, MV-1-Lu cells): 16.43 ± 2.95 10^3 d.p.m.; (+/−) % change over control with TGF β-1 ([1]; TGF β-1 5 nM alone): −72%; decrease of DNA synthesis ([1]; TGF β-1 5.0 nM, MV-1-Lu cells): approximately 70%; 3H-Thymidine Incorporation 10^3 d.p.m. ± S.D. ([1]; TGF β-1 10 nM alone, MV-1-Lu cells): 1.91 ± 0.08 10^3 d.p.m.; (+/−) % change over control with TGF β-1 ([1]; TGF β-1 10 nM alone): −97%; inhibition of DNA synthesis ([1]; TGF β-1 10 nM, MV-1-Lu cells): ~97% |
